# Reference: PMC4055159, “Application of Molecular Modeling to Urokinase Inhibitors Development” (BioMed Research International, 2014)
# Target: urokinase (uPA) (Homo sapiens, UniProt P00749)
# Assay: urokinase inhibition testing in vitro, chromogenic substrate S-2444, optical density at 405 nm
# Assay type: biochemical
# Details: ordered compounds, Table 7; read-out: Experiment, uPA inhibition activity (IC50)
# Protocol: After selection of the most promising candidates for new urokinase inhibitors, we tested their inhibition activities in vitro. The experiments were carried out on the system with the urokinase specimen, the tested ligand, and the special substrate—a synthetic Pyro-Glu-Gly-Arg-pNA peptide (S-2444). Urokinase decomposes the substrate with production of the chromogenic product. When the inhibitor binds to the urokinase active site, this production is slowed down. The higher the inhibition activity of the ligand, the slower the working of urokinase and the slower the accumulation of chromogenic product. Thus, the inhibitory activity can be measured by the rate of optical density change at the 405 nm wavelength. […] Error of the method for IC50 measurement in micromole range is about […].
# Experimental tests were performed as indicated in paragraph 3.5 of “Methods.” Urokinase proteolytic activity in the presence of inhibitor (and also in absence of inhibitor, labeled “control” in Figure 4) was determined by releasing the paranitroanilide by means of measuring of absorption with a wave length of 405 nm each minute at 30°C. Figure 4 is a diagram of relationship between optical density and time. The angle of curve describes the reaction rate: the lower it is (compared with “control”, which corresponds to urokinase without inhibitors), the better inhibitor works.
row,Compound,IC50
1,Cc1[nH]c2ccc(Oc3ccccc3)cc2c1CCN [TRY-0074],260 µM

# Same assay, conditions: ordered compounds, Table S2; read-out: Experiment, uPA inhibition activity (IC50)
row,Compound,IC50
1,Nc1ncc(-c2ccc(F)cc2)[nH]1 [AIM-0027],500 µM

# Same assay, conditions: synthesized compounds, Table 8; read-out: Experiment, uPA inhibition activity (IC50)
row,Compound,IC50
1,N=C(N)Sc1ccccn1 [U001R],> 500 µM
2,N=C(N)Sc1ccccc1 [U002R],> 500 µM
3,Nc1cc2ccccc2cn1 [U003P],> 500 µM
4,Nc1nc(-c2ccccc2)c[nH]1 [U005r],500 µM
5,NC1=NCC(COc2ccccc2)O1 (centres unmarked) [U006R],> 500 µM
6,N=C(N)Sc1ccc(Br)cn1 [U007R],> 500 µM
7,Nc1nc(-c2ccc3ccccc3c2)cs1 [U009T],> 500 µM
8,NC1=NCC(COc2c(Cl)cccc2Cl)O1 (centres unmarked) [U012T],> 500 µM
9,Cc1cccc(C)c1OCC1CN=C(N)O1 (centres unmarked) [U013T],> 500 µM
10,Nc1ccc2[nH]c(N)nc2c1 [U014R],200 µM
11,Nc1nc2cc([N+](=O)[O-])ccc2[nH]1 [U014aR],> 500 µM
12,Nc1nc2cc(NS(=O)(=O)c3ccccc3)ccc2[nH]1 [U015R],> 500 µM
13,CC(=O)Nc1ccc2[nH]c(N)nc2c1 [U017R],200 µM
14,COc1ccc2nc(N)[nH]c2c1 [U019R],500 µM
15,Nc1nc2cc(F)ccc2[nH]1 [U020R],500 µM
16,N=C(N)Nc1n[nH]c2ccccc12 [U021R],500 µM
17,"N=C(N)Nc1nsc2ccccc12 [U024R, 1,2-benzisothiazol-3-yl-guanidine]",33 µM
18,"N=C(N)Nc1nsc2ccc(Br)cc12 [U026R, (5-bromo-1,2-benzisothiazol-3-yl) guanidine]",4 to 20 µM

# Target: uPA
# Assay: not given
# Parameters: method as in PMID 8495419
# Details: cited from earlier work
row,Compound,Ki
1,N=C(N)c1cc2c(I)cccc2s1 [B428],0.53 µM

# Target: human uPA
# Assay: not given
# Parameters: method as in PMID 15582418, PMID 12113833, PMID 11755349, PMID 15149680, PMID 17447747
# Details: read-out: K i against human uPA; cited from earlier work
row,Compound,Ki
1,CCOC(=O)N1CCN(C(=O)C(Cc2cccc(C(=N)N)c2)NS(=O)(=O)c2c(C(C)C)cc(C(C)C)cc2C(C)C)CC1 (centres unmarked) [WX-UK1],0.6 µM

# System: not given
# Assay: not given
# Parameters: method as in PMID 19200050
# Details: cited from earlier work
row,Compound,oral absorption
1,CCOC(=O)N1CCN(C(=O)C(Cc2cccc(C(=N)N)c2)NS(=O)(=O)c2c(C(C)C)cc(C(C)C)cc2C(C)C)CC1 (centres unmarked) [WX-UK1],not absorbed orally
